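Each compound was tested at five concentrations against cells in 96-well plates for 48 hours. GI50 marks 50% less growth.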 Activity calls are given as the source filed them. No stated cut-off is given here; in the data, active = GI50 up to about 1.1 µM and inactive = higher.
Assays:
Assay in all cases: NCI-60 cell line screen, 48 h
786-0 = test system: 786-0
A498 = test system: A498
A549 = test system: A549
ACHN = test system: ACHN
CAKI-1 = test system: CAKI-1
CCRF-CEM = test system: CCRF-CEM
COLO 205 = test system: COLO 205
DLD-1 = test system: DLD-1
DMS-114 = test system: DMS-114
DMS-273 = test system: DMS-273
EKVX = test system: EKVX
HCC 2998 = test system: HCC 2998
HCT-116 = test system: HCT-116
HCT-15 = test system: HCT-15
HL-60 = test system: HL-60
HOP-18 = test system: HOP-18
HOP-62 = test system: HOP-62
HT-29 = test system: HT-29
IGROV-1 = test system: IGROV-1
K562 = test system: K562
KM-20L2 = test system: KM-20L2
KM12 = test system: KM12
LOX IMVI = test system: LOX IMVI
LXFL 529 = test system: LXFL 529
M14 = test system: M14
M19-MEL = test system: M19-MEL
MOLT-4 = test system: MOLT-4
Malme-3M = test system: Malme-3M
NCI-H226 = test system: NCI-H226
NCI-H23 = test system: NCI-H23
NCI-H460 = test system: NCI-H460
NCI-H522 = test system: NCI-H522
OVCAR-3 = test system: OVCAR-3
OVCAR-4 = test system: OVCAR-4
OVCAR-5 = test system: OVCAR-5
OVCAR-8 = test system: OVCAR-8
RPMI-8226 = test system: RPMI-8226
RXF 393 = test system: RXF 393
SF-268 = test system: SF-268
SF-295 = test system: SF-295
SF-539 = test system: SF-539
SK-MEL-28 = test system: SK-MEL-28
SK-MEL-2 = test system: SK-MEL-2
SK-MEL-5 = test system: SK-MEL-5
SK-OV-3 = test system: SK-OV-3
SN12C = test system: SN12C
SNB-19 = test system: SNB-19
SNB-75 = test system: SNB-75
SNB-78 = test system: SNB-78
SR = test system: SR
SW-620 = test system: SW-620
TK-10 = test system: TK-10
U-251 = test system: U-251
UACC-257 = test system: UACC-257
UACC-62 = test system: UACC-62
UO-31 = test system: UO-31
XF498 = test system: XF498

O=C(CC1(O)C(=O)Nc2c(Cl)ccc(Cl)c21)c1ccc2ccccc2c1 (configuration not stated)
GI50 (786-0): 6.25 µM (inactive) | GI50 (A498): 16.3 µM (inactive) | GI50 (A549): 18.3 µM (inactive) | GI50 (ACHN): 12.9 µM (inactive) | GI50 (CAKI-1): 4.46 µM (inactive) | GI50 (CCRF-CEM): 3.62 µM (inactive) | GI50 (COLO 205): 14.9 µM (inactive) | GI50 (DLD-1): 17.9 µM (inactive) | GI50 (DMS-114): 5.78 µM (inactive) | GI50 (DMS-273): 5.58 µM (inactive) | GI50 (EKVX): 15.8 µM (inactive) | GI50 (HCC 2998): 13.1 µM (inactive) | GI50 (HCT-116): 11.7 µM (inactive) | GI50 (HCT-15): 6.19 µM | GI50 (HL-60): 1.73 µM (inactive) | GI50 (HOP-18): 12.9 µM (inactive) | GI50 (HOP-62): 29 µM (inactive) | GI50 (HT-29): 2.43 µM (inactive) | GI50 (IGROV-1): 14.3 µM (inactive) | GI50 (K562): 2.35 µM (inactive) | GI50 (KM-20L2): 7.08 µM (inactive) | GI50 (KM12): 4.69 µM (inactive) | GI50 (LOX IMVI): 11.2 µM (inactive) | GI50 (LXFL 529): 10.2 µM (inactive) | GI50 (M14): 8.85 µM (inactive) | GI50 (M19-MEL): 2.65 µM (inactive) | GI50 (MOLT-4): 10.8 µM (inactive) | GI50 (Malme-3M): 12.5 µM (inactive) | GI50 (NCI-H226): 19.2 µM (inactive) | GI50 (NCI-H23): 10.4 µM (inactive) | GI50 (NCI-H460): 9.2 µM (inactive) | GI50 (NCI-H522): 2.88 µM (inactive) | GI50 (OVCAR-3): 4.17 µM (inactive) | GI50 (OVCAR-4): 2.29 µM (inactive) | GI50 (OVCAR-5): 17.3 µM (inactive) | GI50 (OVCAR-8): 15.5 µM (inactive) | GI50 (RPMI-8226): 6.75 µM (inactive) | GI50 (RXF 393): 11.6 µM (inactive) | GI50 (SF-268): 14.5 µM (inactive) | GI50 (SF-295): 4.92 µM (inactive) | GI50 (SF-539): 13.5 µM (inactive) | GI50 (SK-MEL-28): 14.8 µM (inactive) | GI50 (SK-MEL-2): 11.6 µM (inactive) | GI50 (SK-MEL-5): 5.65 µM (inactive) | GI50 (SK-OV-3): 11.9 µM (inactive) | GI50 (SN12C): 16.4 µM (inactive) | GI50 (SNB-19): 16.1 µM (inactive) | GI50 (SNB-75): 14.2 µM (inactive) | GI50 (SNB-78): 14.5 µM (inactive) | GI50 (SR): 3.21 µM (inactive) | GI50 (SW-620): 3.36 µM (inactive) | GI50 (TK-10): 16.2 µM (inactive) | GI50 (U-251): 4.76 µM (inactive) | GI50 (UACC-257): 12.2 µM (inactive) | GI50 (UACC-62): 3.24 µM (inactive) | GI50 (UO-31): 18.1 µM (inactive) | GI50 (XF498): 12.6 µM (inactive)

Source: ChEMBL document CHEMBL1201862, “PubChem BioAssay data set” (2004)
